Data reported in article PMC3335078, “Length and Amino Acid Sequence of Peptides Substituted for the 5-HT3A Receptor M3M4 Loop May Affect Channel Expression and Desensitization” (PLoS ONE, 2012).

Assays:
[1] = target: T1, 5-HT3A-A7 (M3M4 loop replaced by seven alanines) (Mus musculus, UniProt P23979)
T1 sequence (P23979 with tags, fused parts or gaps isoform P23979-2 limits assumed): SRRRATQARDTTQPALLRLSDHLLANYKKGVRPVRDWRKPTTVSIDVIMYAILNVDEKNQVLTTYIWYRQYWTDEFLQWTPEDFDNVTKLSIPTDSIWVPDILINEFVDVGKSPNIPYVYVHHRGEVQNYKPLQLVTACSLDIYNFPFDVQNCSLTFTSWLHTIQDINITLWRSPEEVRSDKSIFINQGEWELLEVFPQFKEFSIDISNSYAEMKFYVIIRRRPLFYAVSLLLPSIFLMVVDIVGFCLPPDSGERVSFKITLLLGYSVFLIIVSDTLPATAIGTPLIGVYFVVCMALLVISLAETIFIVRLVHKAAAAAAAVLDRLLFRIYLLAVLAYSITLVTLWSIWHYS
Description: (§1) The mouse 5-HT3A cDNA with an N-terminal V5 epitope tag was cloned into the pXOON vector as previously described, and is referred to in this paper as “wild-type” (WT). The starting construct for all of the M3M4 loop replacement constructs used in this work was the 5-HT3A-ΔM3M4 construct formed by splicing the cytoplasmic end of M3 (M3-LVHK/QDLQRP…) to the cytoplasmic end of M4 (…WLRVGY/VLDRLL-M4). The splice was made at the site of the “/” to yield the sequence M3-LVHK/VLDRLL-M4 [34]. This removed 115 residues predicted to form the M3M4 loop.
(§2) The construction of the 5-HT3A-glvM3M4 chimera with the 5-HT3A M3M4 loop replaced by the GLIC heptapeptide M3M4 loop (SQPARAA) was described previously. Point mutations, alanine and Gly-Ser-Ala insertions into the 5-HT3A-ΔM3M4 construct were generated with the Quikchange site directed mutagenesis procedure (Stratagene, La Jolla, CA). The entire coding region of all mutant constructs was verified by DNA sequencing (Albert Einstein College of Medicine DNA Sequencing Facility). The pXOON plasmid was linearized using NheI and capped mRNA prepared with T7 RNA polymerase (mMessage mMachine, Ambion, Austin, TX).
(§3) Use of Xenopus laevis in this study was carried out in strict accordance with the recommendations in the Guide for the Care and Use of Laboratory Animals of the National Institutes of Health. The protocol was approved by the Albert Einstein College of Medicine Animal Care and Use Committee (Protocol Number: 20081201). All surgery was performed under tricaine anesthesia, and all efforts were made to minimize suffering. Oocyctes were harvested from Xenopus (Nasco Science, Fort Atkinson, WI) anesthetized with 0.15% tricaine. Oocyctes were defolliculated by incubation in 2 mg ml^−1 Type 1A collagenase (Sigma-Aldrich, St. Louis, MO) in OR2 (85 mM NaCl, 2 mM KCl, 1 mM MgCl2, and 5 mM HEPES; pH adjusted to 7.5 with NaOH) for a 60 or 75 min. Oocytes were washed in OR2 and stored at 16°C in SOS medium: 100 mM NaCl, 2 mM KCl, 1 mM MgCl2, 1.8 mM CaCl2 5 mM HEPES, pH 7.5 with 100 IU ml^−1 penicillin, 100 µg ml^−1 streptomycin, and 250 ng ml^−1 amphotericin B (Invitrogen, Carlsbad, CA) and 5% horse serum (Sigma-Aldrich). 24 hrs following isolation, oocyctes were injected with 23 nl (2.3 ng) of mRNA and were kept in SOS media for 2–5 d at 16°C.
(§4) Currents were recorded under two-electrode voltage clamp from oocytes 2–5 d post-injection as described previously. […] The perfusion chamber volume was 200 µl. A 3 M KCl/agar bridge connected the ground electrode to the bath. The holding potential was maintained at −60 mV. […] Salts were purchased from Fisher Scientific (Hampton, NH) or Sigma-Aldrich.
(§5) Desensitization rates were determined by fitting a single exponential decay function to the current data with Prism 4 software (GraphPad Software). Significant differences compared with wild-type were determined by a one-way ANOVA (p<0.05) using Dunnett's multiple comparison post-hoc test (p<0.05). […]

[2] = target: T2, 5-HT3A-A6 (M3M4 loop replaced by six alanines) (Mus musculus, UniProt P23979)
T2 sequence (P23979 with tags, fused parts or gaps isoform P23979-2 limits assumed): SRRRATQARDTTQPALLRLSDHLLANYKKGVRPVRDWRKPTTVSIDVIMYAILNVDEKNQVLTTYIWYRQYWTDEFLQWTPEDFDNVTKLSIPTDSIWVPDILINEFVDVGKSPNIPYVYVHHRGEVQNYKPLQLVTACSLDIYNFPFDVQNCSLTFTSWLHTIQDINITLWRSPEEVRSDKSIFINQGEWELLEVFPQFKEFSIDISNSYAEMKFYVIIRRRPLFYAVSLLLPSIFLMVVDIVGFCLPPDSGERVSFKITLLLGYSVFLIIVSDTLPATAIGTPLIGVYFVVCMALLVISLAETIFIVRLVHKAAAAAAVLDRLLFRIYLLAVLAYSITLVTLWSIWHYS
Description: as §1, §2, §3, §4, §5

[3] = target: T3, 5-HT3A M3M4 loop SQPAEAA construct (Mus musculus, UniProt P23979); test: Two-electrode voltage clamp, oocytes expressing SQPAEAA loop construct; format: cell-based; conditions: 10 µM 5-HT, Xenopus oocytes
T3 construct: expressed in transfected cells; host or cells: Xenopus laevis oocytes injected with mRNA
Description: as §1
(§6) The construction of the 5-HT3A-glvM3M4 chimera with the 5-HT3A M3M4 loop replaced by the GLIC heptapeptide M3M4 loop (SQPARAA) was described previously. Point mutations, alanine and Gly-Ser-Ala insertions into the 5-HT3A-ΔM3M4 construct were generated with the Quikchange site directed mutagenesis procedure (Stratagene, La Jolla, CA). […]
(§7) Currents were recorded under two-electrode voltage clamp from oocytes 2–5 d post-injection as described previously. […]
(§8) Desensitization rates were determined by fitting a single exponential decay function to the current data with Prism 4 software (GraphPad Software). Significant differences compared with wild-type were determined by a one-way ANOVA (p<0.05) using Dunnett's multiple comparison post-hoc test (p<0.05). […]

[4] = target: T4, 5-HT3A M3M4 loop GSAGSA mutant (Mus musculus, UniProt P23979); test: Two-electrode voltage clamp, oocytes expressing GSAGSA M3M4 mutant; format: cell-based; conditions: 10 µM 5-HT, Xenopus oocytes
T4 construct: expressed in transfected cells; host or cells: Xenopus laevis oocytes injected with mRNA
Description: as §1, §6, §7, §8

[5] = target: T5, 5-HT3A-A3 (M3M4 loop replaced by three alanines) (Mus musculus, UniProt P23979, DELINS338-452AAA); test: Two-electrode voltage clamp, oocytes expressing 5-HT3A-A3; format: cell-based
T5 construct: expressed in transfected cells; host or cells: Xenopus laevis oocytes injected with mRNA
T5 sequence (P23979 with tags, fused parts or gaps isoform P23979-2 DELINS338-452AAA limits assumed): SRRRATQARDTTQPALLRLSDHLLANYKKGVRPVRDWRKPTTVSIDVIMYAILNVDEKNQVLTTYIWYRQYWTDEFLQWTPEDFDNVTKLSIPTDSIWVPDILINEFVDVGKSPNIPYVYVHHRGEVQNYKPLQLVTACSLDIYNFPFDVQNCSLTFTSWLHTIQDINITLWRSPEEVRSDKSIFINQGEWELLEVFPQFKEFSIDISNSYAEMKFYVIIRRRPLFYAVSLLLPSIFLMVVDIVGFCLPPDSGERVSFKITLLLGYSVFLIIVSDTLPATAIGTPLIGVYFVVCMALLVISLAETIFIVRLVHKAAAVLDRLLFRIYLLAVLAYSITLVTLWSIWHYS
Description: as §1, §2, §3
Currents were recorded under two-electrode voltage clamp from oocytes 2–5 d post-injection as described previously. […] The perfusion chamber volume was 200 µl. […]
as §8

[6] = target: T6, 5-HT3A ESQPA-M3M4 loop construct (Mus musculus, UniProt P23979); test: Two-electrode voltage clamp, oocytes expressing ESQPA-M3M4 loop construct; format: cell-based; conditions: up to 50 µM 5-HT, Xenopus oocytes
T6 construct: expressed in transfected cells; host or cells: Xenopus laevis oocytes injected with mRNA
Description: as §1, §6, §7, §8

[7] = 10 µM 5-HT, Xenopus oocytes, -60 mV

T3 sequence (P23979 with tags, fused parts or gaps): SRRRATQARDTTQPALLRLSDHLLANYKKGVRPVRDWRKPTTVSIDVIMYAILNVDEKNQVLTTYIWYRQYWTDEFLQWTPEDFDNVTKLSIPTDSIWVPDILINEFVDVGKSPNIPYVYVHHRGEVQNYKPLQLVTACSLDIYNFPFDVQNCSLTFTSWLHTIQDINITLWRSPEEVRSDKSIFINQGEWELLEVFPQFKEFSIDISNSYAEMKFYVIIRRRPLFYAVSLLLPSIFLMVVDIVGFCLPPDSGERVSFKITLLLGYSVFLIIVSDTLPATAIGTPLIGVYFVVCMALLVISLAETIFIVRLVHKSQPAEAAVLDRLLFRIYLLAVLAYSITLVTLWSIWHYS
T6 sequence (P23979 with tags, fused parts or gaps isoform P23979-2 limits assumed): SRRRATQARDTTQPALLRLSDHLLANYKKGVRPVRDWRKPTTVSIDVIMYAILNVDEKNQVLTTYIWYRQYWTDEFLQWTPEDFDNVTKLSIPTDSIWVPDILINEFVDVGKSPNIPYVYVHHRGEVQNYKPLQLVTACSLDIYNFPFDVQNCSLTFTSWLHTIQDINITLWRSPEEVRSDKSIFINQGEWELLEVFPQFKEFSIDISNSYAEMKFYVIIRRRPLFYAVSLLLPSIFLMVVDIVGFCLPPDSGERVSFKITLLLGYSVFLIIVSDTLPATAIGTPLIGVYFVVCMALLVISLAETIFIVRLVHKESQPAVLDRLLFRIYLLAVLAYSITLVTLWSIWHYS
T4 sequence (P23979 with tags, fused parts or gaps isoform P23979-2 limits assumed, change not shown): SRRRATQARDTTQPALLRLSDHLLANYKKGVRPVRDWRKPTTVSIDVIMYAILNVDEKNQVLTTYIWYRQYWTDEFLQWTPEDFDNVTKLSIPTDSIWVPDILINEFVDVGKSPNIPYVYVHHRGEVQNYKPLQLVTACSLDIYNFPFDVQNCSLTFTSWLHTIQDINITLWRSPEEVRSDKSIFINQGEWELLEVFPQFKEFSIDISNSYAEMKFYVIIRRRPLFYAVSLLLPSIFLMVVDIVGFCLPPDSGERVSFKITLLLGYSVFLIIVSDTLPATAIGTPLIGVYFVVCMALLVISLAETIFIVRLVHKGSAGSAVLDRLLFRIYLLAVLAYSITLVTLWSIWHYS

NCCc1c[nH]c2ccc(O)cc12 [5-HT, 5-hydroxytryptamine]
nH (Hill coefficient) [1]: 3.7±0.8
10–90% Activation rise time ([1]; 10 µM 5-HT): 881 ± 110 ms
Desensitization time constant τ ([1]; prolonged 10 µM 5-HT): 62 ± 4 s
10–90% Activation rise time ([2]; 10 µM 5-HT): 1017 ± 23 ms
Imax (peak current) [2, 7]: 6400±1100 nA
Desensitization time constant τ ([2]; prolonged 10 µM 5-HT): 77 ± 6 s
5-HT induced current [3]: large currents
5-HT induced current [4]: 730±45 nA
nH (Hill coefficient) [5]: 2.6±0.4
10–90% Activation rise time ([5]; 10 µM 5-HT): 621 ± 47 ms
Imax (peak current) [5, 7]: 6300±800 nA
Desensitization time constant τ ([5]; prolonged 10 µM 5-HT, may be limited by solution exchange): 8 ± 2 s
5-HT induced current [6]: no currents were observed
